Here are results for 1 molecule from paper PMC13476077, “Systematic comparison of temporal hepatotoxicant-induced gene network responses across 3 liver test systems” (Toxicological Sciences, 2026).

What is called Vss is the apparent volume that relates the amount in the body to the concentration in plasma or blood. Low readings indicate little distribution into tissue, high ones wide distribution into tissue.

This data set in a line: Pharmacokinetic properties from the literature. It is filed as in vivo. The settings on record: Minimal PBPK model; Derived using WinNonLin, ref Huang et al. (1986). The source says:
Compound-specific physicochemical properties (e.g., pKa, fraction unbound in plasma, etc.) are detailed in Table S1B and were used to parameterize each model.

In turn, `CC(=O)N1CCN(c2ccc(OCC3COC(Cn4ccnc4)(c4ccc(Cl)cc4Cl)O3)cc2)CC1` (stereo not shown) [Ketoconazole] showed a Vss of 0.345 L/kg.
